Source: ChEMBL document CHEMBL1201862, “PubChem BioAssay data set” (2004)
The source made the active and inactive calls.

Key:
[1] = biological target: Voltage-dependent T-type calcium channel subunit alpha-1H (Homo sapiens, UniProt O95180); type: functional;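 note: channel activity triggered by adding a high calcium stimulation buffer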
[2] = biological target: T1, Heat shock factor protein 1 (Mus musculus, UniProt P38532); test: decrease of HSF1-responsive luciferase luminescence – cell-based, NIH3T3, dose retest, confirmation (AID 2382); type: functional;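 note: NIH3T3 fibroblasts with HSF1-driven luciferase reporter stressed by proteasome inhibitor MG132; luminescence from HSF1-driven luciferase expression after 8 hours of MG132 stress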
T1 sequence (P38532 whole entry): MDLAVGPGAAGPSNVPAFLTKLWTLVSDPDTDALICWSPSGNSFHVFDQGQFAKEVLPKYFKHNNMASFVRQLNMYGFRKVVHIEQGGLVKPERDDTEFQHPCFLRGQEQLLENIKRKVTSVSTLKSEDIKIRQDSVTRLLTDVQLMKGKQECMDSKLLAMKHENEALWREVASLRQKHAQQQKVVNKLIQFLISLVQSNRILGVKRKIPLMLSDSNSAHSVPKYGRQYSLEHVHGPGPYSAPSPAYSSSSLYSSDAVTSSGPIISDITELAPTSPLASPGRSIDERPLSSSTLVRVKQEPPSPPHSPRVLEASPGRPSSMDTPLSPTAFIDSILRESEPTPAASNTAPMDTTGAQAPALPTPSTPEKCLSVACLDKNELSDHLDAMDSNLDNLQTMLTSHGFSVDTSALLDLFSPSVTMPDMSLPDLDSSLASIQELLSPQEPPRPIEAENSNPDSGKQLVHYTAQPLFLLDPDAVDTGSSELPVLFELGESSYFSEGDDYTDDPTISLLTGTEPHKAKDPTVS

[3] = biological target: T2, Carboxy-terminal domain RNA polymerase II polypeptide A small phosphatase 1 (Homo sapiens, UniProt Q9GZU7); test: CTDSP1 inhibitors, concentration-response, biochemical, absorbance readout, ultra-high-throughput screen actives (AID 540297); type: functional
T2 sequence (Q9GZU7 whole entry): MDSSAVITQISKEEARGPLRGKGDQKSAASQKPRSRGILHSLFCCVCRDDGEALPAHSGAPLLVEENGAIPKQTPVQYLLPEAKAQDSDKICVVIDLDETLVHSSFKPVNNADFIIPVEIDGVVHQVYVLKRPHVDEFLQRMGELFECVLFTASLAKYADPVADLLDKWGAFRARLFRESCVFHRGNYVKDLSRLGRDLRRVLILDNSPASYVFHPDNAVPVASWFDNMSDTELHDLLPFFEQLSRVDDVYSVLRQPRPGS

BJ [4] = test: BJ-TERT fibroblast viability loss – cell-based, RAS-independent, luminescence, dose response (AID 1933); type: functional; details: Homo sapiens
BJ [5] = test: cells; type: functional, cell-based; details: Homo sapiens
BJ [6] = test: BJ-TERT-LT-ST fibroblast viability loss – cell-based, RAS-independent, luminescence, dose response (AID 1935); type: functional; details: Homo sapiens;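 note: BJ fibroblasts immortalized with TERT plus LT and ST oncogenes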
[7] = DRD fibroblast viability loss – cell-based, non-viral oncogenic, luminescence, dose response (AID 1934); type: functional; details: Homo sapiens
SUMO-activating enzyme [8] = biological target: T3, SUMO-activating enzyme (Homo sapiens, UniProt Q9UBT2); test: blockers of UBC9-mediated SUMO conjugation – biochemical, AlphaScreen, SUMOylation inhibitor project, confirmation (AID 2018); type: functional
[9] = blockers of HIV-1 envelope-mediated cell-cell fusion – cherry-pick, dose response (AID 652057); type: functional, cell-based
[10] = blockers of HIV-1 ZM109 envelope-driven cell-cell fusion – HeLa effector, CEM target cells, luciferase, cherry-pick, dose response (AID 652058); type: functional, cell-based;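 note: luciferase signal from HIV-1 Env mediated cell-cell fusion of effector and target cells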
HEK293 = test: EBV LMP1 TES2 canonical NF-kB signalling blockers – cell-based, HEK293, luciferase, cherry-pick, dose response (AID 588343); type: functional; details: Homo sapiens
[11] = microbe, parasite or virus in culture; type: functional; details: Mycobacterium tuberculosis
INS1 = test: INS-1E survival protection against cytokine death – cell-based, luminescence, retest, dose response (AID 449756); type: functional; details: Rattus norvegicus;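 note: cell death triggered by IL-1 beta plus TNF-alpha plus IFN-gamma mixture; protective hits raise ATP signal compared with cytokine alone wells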
SUMO-activating enzyme [12] = biological target: T3, SUMO-activating enzyme; test: blockers of SAE1/SAE2–UBC9 SUMO transfer – biochemical, HTRF, uHTS, primary screen (AID 2006); type: protein-complex assay
SN12K1 = test: cells; type: functional; details: Homo sapiens

T3 sequence (Q9UBE0 whole entry, the tested form may be a part): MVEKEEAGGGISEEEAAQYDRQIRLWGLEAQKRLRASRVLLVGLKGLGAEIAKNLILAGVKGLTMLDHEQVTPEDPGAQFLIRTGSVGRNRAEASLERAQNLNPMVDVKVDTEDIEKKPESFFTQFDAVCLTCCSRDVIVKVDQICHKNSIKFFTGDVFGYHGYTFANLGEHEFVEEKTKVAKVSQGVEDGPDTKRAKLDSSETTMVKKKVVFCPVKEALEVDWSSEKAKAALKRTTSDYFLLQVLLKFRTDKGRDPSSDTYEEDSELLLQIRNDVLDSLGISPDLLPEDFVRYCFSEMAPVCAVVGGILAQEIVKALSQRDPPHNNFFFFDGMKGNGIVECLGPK
T3 sequence (Q9UBT2 whole entry, the tested form may be a part): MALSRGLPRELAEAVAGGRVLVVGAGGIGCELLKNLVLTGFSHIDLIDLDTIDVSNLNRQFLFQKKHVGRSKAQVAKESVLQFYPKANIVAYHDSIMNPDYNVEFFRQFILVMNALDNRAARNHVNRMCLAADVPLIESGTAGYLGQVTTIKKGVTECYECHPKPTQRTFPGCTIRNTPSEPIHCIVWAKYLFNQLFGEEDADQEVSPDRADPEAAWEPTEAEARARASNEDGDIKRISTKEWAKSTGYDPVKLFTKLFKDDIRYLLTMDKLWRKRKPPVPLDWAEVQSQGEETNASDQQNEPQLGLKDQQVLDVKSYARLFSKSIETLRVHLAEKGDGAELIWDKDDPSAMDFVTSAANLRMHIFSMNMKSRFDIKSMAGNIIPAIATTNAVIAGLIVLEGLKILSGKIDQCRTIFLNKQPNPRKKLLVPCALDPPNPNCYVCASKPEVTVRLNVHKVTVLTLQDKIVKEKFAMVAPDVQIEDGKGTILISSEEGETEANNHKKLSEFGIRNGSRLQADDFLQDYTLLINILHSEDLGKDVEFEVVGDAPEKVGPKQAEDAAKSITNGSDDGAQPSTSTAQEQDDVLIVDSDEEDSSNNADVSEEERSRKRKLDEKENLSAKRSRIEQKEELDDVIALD
Voltage-dependent T-type calcium channel subunit alpha-1H, sequence (O95180 whole entry): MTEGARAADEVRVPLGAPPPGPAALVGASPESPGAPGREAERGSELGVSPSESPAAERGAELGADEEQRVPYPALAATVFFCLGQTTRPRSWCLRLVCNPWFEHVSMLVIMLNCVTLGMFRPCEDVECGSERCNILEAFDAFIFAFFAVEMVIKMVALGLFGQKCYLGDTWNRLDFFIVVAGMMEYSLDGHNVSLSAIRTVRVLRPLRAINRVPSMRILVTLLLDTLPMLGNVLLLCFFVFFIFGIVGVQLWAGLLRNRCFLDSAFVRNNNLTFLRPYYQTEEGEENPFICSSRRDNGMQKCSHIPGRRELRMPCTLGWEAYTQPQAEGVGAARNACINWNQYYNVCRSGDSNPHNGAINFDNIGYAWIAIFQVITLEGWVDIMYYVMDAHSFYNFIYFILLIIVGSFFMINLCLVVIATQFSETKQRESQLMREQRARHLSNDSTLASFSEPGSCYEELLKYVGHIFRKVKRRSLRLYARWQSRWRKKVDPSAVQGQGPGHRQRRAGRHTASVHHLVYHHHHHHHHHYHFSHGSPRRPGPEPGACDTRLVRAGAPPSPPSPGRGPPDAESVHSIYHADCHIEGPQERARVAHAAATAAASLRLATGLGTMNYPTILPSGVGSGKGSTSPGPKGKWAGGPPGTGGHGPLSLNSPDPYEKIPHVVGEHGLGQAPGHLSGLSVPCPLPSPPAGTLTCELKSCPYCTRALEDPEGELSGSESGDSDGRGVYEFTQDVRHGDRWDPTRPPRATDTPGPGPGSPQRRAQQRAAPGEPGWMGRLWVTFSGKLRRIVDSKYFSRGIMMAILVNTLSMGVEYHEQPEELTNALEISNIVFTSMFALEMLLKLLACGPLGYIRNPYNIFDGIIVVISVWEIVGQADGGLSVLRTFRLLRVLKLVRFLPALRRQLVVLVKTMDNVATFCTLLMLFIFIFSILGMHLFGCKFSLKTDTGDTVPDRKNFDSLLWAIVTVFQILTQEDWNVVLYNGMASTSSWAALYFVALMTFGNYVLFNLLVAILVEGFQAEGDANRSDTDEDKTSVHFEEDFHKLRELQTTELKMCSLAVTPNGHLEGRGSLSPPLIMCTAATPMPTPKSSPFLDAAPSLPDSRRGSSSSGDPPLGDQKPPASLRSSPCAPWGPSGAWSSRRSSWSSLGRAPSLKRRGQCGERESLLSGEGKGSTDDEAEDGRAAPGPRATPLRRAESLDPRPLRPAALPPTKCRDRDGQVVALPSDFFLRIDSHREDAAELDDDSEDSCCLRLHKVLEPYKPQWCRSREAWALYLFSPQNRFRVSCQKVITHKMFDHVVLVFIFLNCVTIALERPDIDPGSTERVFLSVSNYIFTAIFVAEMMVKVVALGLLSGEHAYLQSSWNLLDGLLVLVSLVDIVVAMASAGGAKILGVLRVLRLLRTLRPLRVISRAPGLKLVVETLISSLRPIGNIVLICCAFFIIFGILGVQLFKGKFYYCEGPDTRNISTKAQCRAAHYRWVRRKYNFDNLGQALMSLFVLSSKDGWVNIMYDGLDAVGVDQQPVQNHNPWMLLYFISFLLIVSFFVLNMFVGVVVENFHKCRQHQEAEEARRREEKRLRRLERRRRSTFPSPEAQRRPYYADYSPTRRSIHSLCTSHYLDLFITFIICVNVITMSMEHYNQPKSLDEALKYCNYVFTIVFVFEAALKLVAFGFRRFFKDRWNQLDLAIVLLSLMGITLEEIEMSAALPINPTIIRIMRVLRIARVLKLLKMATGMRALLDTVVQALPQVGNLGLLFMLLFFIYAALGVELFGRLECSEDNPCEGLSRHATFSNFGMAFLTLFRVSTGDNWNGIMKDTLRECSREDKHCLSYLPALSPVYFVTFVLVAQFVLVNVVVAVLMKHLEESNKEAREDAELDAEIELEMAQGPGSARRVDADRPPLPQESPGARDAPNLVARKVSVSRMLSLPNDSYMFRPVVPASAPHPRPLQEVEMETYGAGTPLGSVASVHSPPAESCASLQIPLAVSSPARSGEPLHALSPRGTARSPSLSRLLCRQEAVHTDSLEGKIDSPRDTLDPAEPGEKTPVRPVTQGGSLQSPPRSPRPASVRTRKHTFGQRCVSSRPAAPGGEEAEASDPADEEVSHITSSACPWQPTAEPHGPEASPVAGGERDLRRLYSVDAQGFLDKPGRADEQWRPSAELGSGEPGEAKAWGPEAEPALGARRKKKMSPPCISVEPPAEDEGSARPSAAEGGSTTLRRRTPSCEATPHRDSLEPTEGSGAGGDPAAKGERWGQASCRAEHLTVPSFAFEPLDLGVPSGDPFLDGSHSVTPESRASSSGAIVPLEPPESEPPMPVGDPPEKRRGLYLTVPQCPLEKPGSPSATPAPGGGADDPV

## CCOc1ccc(C(=O)Nc2c3c(nn2C(C)(C)C)CSC3)cc1OCC
[1]
  EC50: 3.79 µM (active)

## CC(C)[C@H](NC(=O)Cc1ccccc1)C(=O)OCc1cc(=O)n2c(n1)sc1ccccc12
[2]
  EC50: 21.5 µM (active)
[3]
  IC50: 3.58 µM (active)

## Cc1cccc(NS(=O)(=O)c2ccc(NC(=O)CN(c3cc([N+](=O)[O-])ccc3C)S(C)(=O)=O)cc2)c1
BJ [4]
  EC50: 22.7 µM (active)
BJ [5]
  EC50: 7.28 µM (active)
BJ [6]
  EC50: 7.77 µM (inconclusive)
[7]
  EC50: > 150 µM (not active)

## CCOc1cc(/C=N/N=C(\N)c2nonc2N)cc(Br)c1OCc1cccc2ccccc12
SUMO-activating enzyme [8]
  IC50: 80 µM (active)

## Cc1ccc(S(=O)(=O)N(C)C[C@H]2Oc3cc(-c4cccc(F)c4)ccc3S(=O)(=O)N([C@H](C)CO)C[C@H]2C)cc1
[9]
  AC50: 1.47 µM (active)
[10]
  AC50: < 0.26 µM (active)

## O=Cc1ccc(-c2cccs2)s1
HEK293
  AC50: 6.76 µM (active)

## CC(C)NC(=S)N/N=C/c1cc(Br)ccc1O
[11]
  CC50: 38.5 µM (active)
INS1
  AC50: 1.65 µM (active)

## Cc1cccc(-c2nnc(S)n2/N=C/C=C/c2ccco2)c1
SUMO-activating enzyme [12]
  IC50: > 100 µM (inactive)

## O=C(N/N=C/c1ccc(Cl)cc1)c1nc(O)c2cc([N+](=O)[O-])ccc2n1
SUMO-activating enzyme [8]
  IC50: 21.5 µM (active)
SUMO-activating enzyme [12]
  IC50: 22 µM (active)

## CN(C)c1cccc(/N=C2/C=C(N3CCOCC3)CC(C)(C)C2)c1
[3]
  IC50: 5.65 µM (active)

## C/C=C/C1=C(Cl)C(=O)[C@@H](Cl)[C@@]1(O)C(=O)OC [(+)-CRYPTOSPORIPSIN]
SN12K1
  GI50: 1.89 µM (inactive)
